The values below come from US6395906B1, “Intermediates to pesticidal 1-arylpyrazoles” (Rhone-Poulenc Inc., priority 1995, dated 2002).

Common to all, as to type: in vivo
In assay [1] the test system is black cutworm (Agrotis ipsilon). The experiment in a line: Black cutworm systemic test (BCW-Sys). The settings on record: soil drench 10.0 ppm, corn seedling clipped ten days after treatment; mortality 4 days after infestation. The source says:
(§1) For cotton aphid systemic tests and black cutwork—systemic tests, the water-acetone-DMF-emulsifier solution was adjusted for a treatment rate of 10.0 ppm soil concentration.
Black cutworm—systemic test (BCW-Sys): Corn seeds were placed on top of the soil surface in pots containing moist soil. The test compound solution was applied as a drench to the top of the soil and seeds for a treatment rate equivalent to 10.0 ppm soil concentration. As an untreated control, an aliquot of water-acetone-DMF-emulsifier solution containing no test compound was applied in a similar manner. The soil surface and seeds were covered with moist soil. The pots were held in the greenhouse for the duration of the bioassay. Ten days after treatment, the corn seedling was clipped and placed in a plastic cup with 2 late second to early third instar black cutworm larvae. Mortality was assessed visually 4 days after infestation.

For assay [2], the system named is Mexican bean beetle (Epilachna varivestis). The experiment in a line: Mexican bean beetle (MBB) treated bean leaf test. The note with it: bean leaves, 100 or 500 ppm; second instar larvae, five days. How it is done:
(§2) For the tick, aphids, souther armyworm, tobacco budworm, house fly, Mexican bean beetle, American cockroach, cat flea, souther corn rootworm, western corn rootworm, black cutworm, and southern root-knot nematode, a solution or suspension was prepared by adding the test compound to a solution of dimethylformamide, acetone, emulsifiers which are alkylaryl polyether alcohols organic sulfonates, and water. The result was a 100 or 500 ppm concentration of the test compound.
(§3) Southern armyworm (SAW), Mexican bean beetle (MBB): Bean leaves were wet to runoff with the 100 or 500 ppm test compound formulation. As an untreated control, a water-acetone-DMF-emulsifier solution containing no test compound was also applied wet to runoff to bean leaves. Five or six randomly selected second instar southern armyworn larvae or Mexican bean bettle larvae were introduced into each plastic container with the dry treated leaves. The container was closed and held for five days. Larvae which were unable to move the length of the body, even upon stimulation by prodding, were considered dead.

In assay [3] the test system is tobacco budworm (Heliothis virescens). The experiment in a line: Tobacco budworm (TBW) treated cotton leaf test. The settings on record: cotton leaves, 100 ppm; second instar larvae, five days. How it is done: as §2
Tobacco budworm (TBW): Cotton leaves were wet to runoff with the 100 ppm test compound formulation. As an untreated control, a water-acetone-DMF-emulsifier solution containing no test compound was also applied wet to runoff to cotton leaves. Ten randomly selected second instar tobacco budworm larvae were introduced into plastic containers in which moist dental wicks and the dry treated leaves had been placed. The cups were closed and held for five days. Larvae which were unable to move the length of the body, even upon stimulation by prodding, were considered dead.

The test system of assay [4] is greenbug aphid (Schizaphis graminum). The experiment in a line: Greenbug aphid systemic test (GA-Sys). The settings on record: soil drench 10 or 25 ppm, sorghum; aphid control rated one and three days after infestation. From the text: For the greenbug aphid systemic test, the water-acetone-DMF-emulsifier solution was adjusted for a treatment rate of 10 or 25 ppm soil concentration.
Greenburg aphid—systemic test (GA-Sys): Sorghum seeds were placed on top of the soil surface in pots containing moist soil. The test compound solution was applied as a drench to the top of the soil and seeds for a treatment rate equivalent to 10 or 25 ppm soil concentration. As an untreated control, an aliquot of a water-acetone-DMF-emulsifier solution containing no test compound was applied in a similar manner. The soil surface and seeds were covered with moist soil. The pots were held in the greenhouse for the duration of the bioassay. When the sorghum seeds germinated, greenbug aphids were sprinkled evenly over the sorghum pots to about 50 aphids per pot. The plants were rated for aphid control one and three days after infestation.

The subject of assay [5] is western corn rootworm (Diabrotica virgifera virgifera). In words: Western corn rootworm (WCRW) soil test. The note with it: soil concentration 0.15 or 0.5 ppm; neonate larvae, mortality six days after infestation. How it is done:
as §2
For the western corn rootworm test, the water-acetone-DMF-emulsifier solution was adjusted for a treatment rate of 0.15 or 0.5 ppm.
Western corn rootworm (WCRW): The 500 ppm test formulation was applied to dry sandy loam soil contained in a glass jar for a soil concentration of 0.15 or 0.5 ppm. As an untreated control, an aliquot of a water-acetone-DMF-emulsifier solution containing no test compound was applied in a similar manner. After incubating covered for 24 hours, the soil was mixed and four germinated corn seedlings were added to the jar. Ten neonate western corn rootworm larvae were placed in the jar. Six days after infestation, mortality was assessed by Berlese funnel extraction.

The subject of assay [6] is cotton aphid (Aphis gossypii). In words: Cotton aphid (CA) foliar spray test. The settings on record: cotton plants wet to runoff, 100 or 500 ppm; dead aphids counted after three days. How it is done: as §2
Buckthorn aphid (BA) or cotton aphid (CA): Adult and nymphal stages of buckthorn or cotton aphid were reared on potted dwarf nasturtium or cotton plants, respectively. Plants infested with 100-150 aphids were wet to runoff with the 100 or 500 ppm test compound formulation. As an untreated control, a water-acetone-DMF-emulsifier solution containing no test compound was also applied to runoff to infested plants. The treated plants were stored for one day for buckthorn aphid and three days for cotton aphid, after which the dead aphids were counted.

Assay [7] has as its system cotton aphid (Aphis gossypii). The experiment in a line: Cotton aphid systemic test (CA-Sys). The note with it: soil drench 10.0 ppm, aphid control rated three and six days after infestation.
Text: as §1
Cotton aphid—systemic test (CA-Sys): Cotton seeds were placed on top of the soil surface in pots containing moist soil. The test compound solution was applied as a drench to the top of the soil and seeds for a treatment rate equivalent to 10.0 ppm soil concentration. As an untreated control, an aliquot of a water-acetone-DMF-emulsifier solution containing no test compound was applied in a similar manner. The soil surface and seeds were covered with moist soil. The pots were held in the greenhouse for the duration of the bioassay. When the cotyledons of the cotton were expanded (approximately 7 days after planting), the cotton was infested with approximately 25 cotton aphids (mixed population). The plant were rated for aphid control three and six days after infestation.

Assay [8] concerns American cockroach (Periplaneta americana). The experiment in a line: American cockroach (ACR) treated food pellet test. The note with it: food pellets with 500 ppm formulation; nymphs, contact and feeding mortality 1 and 5 days after infestation. How it is done: as §2
American cockroach (ACR): Cat food or dog food pellets were added to jars containing 1-2 mls of the 500 ppm test formulation. As an untreated control, an aliquot of a water-acetone-DMF-emulsifier solution containing no test compound was applied in a similar manner. After 48 hours, roach nymphs were added to the jar. Contact and feeding mortally was assessed 1 and 5 days after infestation.

In assay [9] the test system is southern armyworm (Spodoptera eridania). In words: Southern armyworm (SAW) treated bean leaf test. The note with it: bean leaves, 100 or 500 ppm; second instar larvae, five days. How it is done: as §2, §3
Assay [10] deals with house fly (Musca domestica). The experiment in a line: House fly (HF) bait test. The note with it: sucrose bait, 100 or 250 ppm; adult flies, mortality after 24 hours. How it is done:
as §2
For house fly tests, the water-acetone-DMF-emulsifier solution was adjusted with a 20% by weight aqueous solution of sucrose to provide a final 100 or 250 ppm concentration of the test compound.
House fly (HF): Four to six day old adult house flies were used. The files were immobilized by anesthetizing with carbon dioxide. A bait cup was prepared which contained the 100 or 250 ppm test compound formulation/sucrose solution and one or two absorbent cotton pad(s). As an untreated control, a water-acetone-DMF-emulsifier-sucrose solution containing no test compound was applied in a similar manner. The bait cup was introduced inside the cage prior to admitting 12-25 anesthetized flies. Mortality was assessed after 24 hours.

Assay [11] concerns southern corn rootworm (Diabrotica undecimpunctata howardi). In words: Southern corn rootworm (SCRW) soil test. The settings on record: soil concentration 2.5, 5, 6.75 or 10 ppm; mortality eight days after infestation. How it is done:
as §2
For southern corn rootworm and black cutworm tests, the water-acetone-DMF-emulsifier solution was adjusted for a treatment rate of 2.5, 5, 6.75 or 10 ppm.
Southern corn rootworm (SCRW), Black cutworm (BCW): Corn seeds were placed in a glass jar and covered with dry sandy loam soil. The 500 ppm test formulation was applied for a soil concentration of 2.5, 5, 6.75 or 10 ppm. As an untreated control, an aliquot of a water-acetone-DMF-emulsifier solution containing no test compound was applied in a similar manner. After incubating covered for 24 hours, the soil was mixed and inoculated with approximately 25 southern corn rootworm eggs. Following an additional 48 hours, two late second to early third instar black cutworms were placed in the jar with a portion of insect diet. Eight days after infestation, mortality was assessed visually for cutworm and by Berlese funnel extraction for rootworm.

For assay [12], the system named is southern root-knot nematode (Meloidogyne incognita). In words: Southern root-knot nematode (SRKN) soil test. The settings on record: soil treatment 23 kg/ha; tomato or cotton root galling rated after 2-3 weeks. How it is done:
as §2
For the southern root-knot nematode tests, the water-acetone-DMF-emulsifier solution was adjusted for a treatment rate of 23 kg/ha soil concentration.
Southern root-knot nematode (SRKN): Eggs and second stage juveniles (J2s) of southern root-knot nematodes were obtained from infected roots of reared tomato plants. Pots containing moist soil were treated with the test compound solution for a treatment rate of 23 kg/ha. As an untreated control, an aliquot of a water-acetone-DMF-emulsifier solution containing no test compound was applied in a similar manner. Immediately after treatment, eggs or J2s of southern root-knot nematode were added to the treated soil. For test with cotton, the seeds were placed on top of the soil the day of treatment and inoculation. For the tests with tomato, the seedlings were transplanted in the pot three days after treatment. The pots were kept in the greenhouse for 2-3 weeks. At the termination of the test, roots of the tomato or cotton seedlings were evaluated for galling on a rating scale from 1 to 5 with one equal to severe galling, relative to untreated control, and five to no galling, i.e., complete control.

As to `CC(O)c1c(SC(F)(F)F)c(C#N)nn1-c1c(Cl)cc(C(F)(F)F)cc1Cl` (centres unmarked) [Compound 8, 3-Cyano-1-(2,6-dichloro-4-trifluoromethylphenyl)-5-(1-hydroxy)ethyl-4-trifluoromethylthiopyrazole], in [1], the BCW-Sys result was “+ (active against 1 or more insects described above up to 100% mortality. This activity is indicated by a “+”)”.

With `C=C(OC(C)=O)c1c(S(=O)(=O)C(F)(F)F)c(C#N)nn1-c1c(Cl)cc(C(F)(F)F)cc1Cl` [Compound 21, 3-Cyano-1-(2,6-dichloro-4-trifluoromethylphenyl)-5-(1-acetoxyethenyl)-4-trifluoromethylsulfonylpyrazole], in assay [2], the MBB result was “+ (active against 1 or more insects described above up to 100% mortality. This activity is indicated by a “+”)”. The TBW result in assay [3] is on record as “+ (active against 1 or more insects described above up to 100% mortality. This activity is indicated by a “+”)”. The GA-Sys entry in assay [4] is “+ (active against 1 or more insects described above up to 100% mortality. This activity is indicated by a “+”)”. In addition, in assay [5], the WCRW entry is listed as “+ (active against 1 or more insects described above up to 100% mortality. This activity is indicated by a “+”)”. The CA result in assay [6] is “+ (active against 1 or more insects described above up to 100% mortality. This activity is indicated by a “+”)”.

Turning to `N#Cc1nn(-c2c(Cl)cc(C(F)(F)F)cc2Cl)c(C(O)C(F)(F)F)c1SC(F)(F)F` (centres unmarked) [Compound 17, 3-Cyano-1-(2,6-dichloro-4-trifluoromethylphenyl)-5-(1-hydroxy-2,2,2-trifluoroethyl)-4-trifluoromethylthiopyrazole], the CA-Sys result in assay [7] was “+ (active against 1 or more insects described above up to 100% mortality. This activity is indicated by a “+”)”. Also, the WCRW result in [5] is reported as “+ (active against 1 or more insects described above up to 100% mortality. This activity is indicated by a “+”)”. Further, the ACR result in assay [8] is “+ (active against 1 or more insects described above up to 100% mortality. This activity is indicated by a “+”)”.

Take `COC(C#N)c1c([S+]([O-])C(F)(F)F)c(C#N)nn1-c1c(Cl)cc(C(F)(F)F)cc1Cl` (centres unmarked) [Compound 14, 3-Cyano-5-{(1-cyano-1-methoxy)methyl}-1-(2,6-dichloro-4-trifluoromethylphenyl)-4-trifluoromethylsulfinylpyrazole]: the TBW result in [3] was “+ (active against 1 or more insects described above up to 100% mortality. This activity is indicated by a “+”)”. Moreover, the SAW result in assay [9] is reported as “+ (active against 1 or more insects described above up to 100% mortality. This activity is indicated by a “+”)”. Besides, the HF result in assay [10] is recorded as “+ (active against 1 or more insects described above up to 100% mortality. This activity is indicated by a “+”)”. For the same compound, the WCRW result in assay [5] is on record as “+ (active against 1 or more insects described above up to 100% mortality. This activity is indicated by a “+”)”. The SCRW entry in [11] is recorded as “+ (active against 1 or more insects described above up to 100% mortality. This activity is indicated by a “+”)”. In [8], the ACR result is “+ (active against 1 or more insects described above up to 100% mortality. This activity is indicated by a “+”)”. Also, the SRKN result in [12] is “+ (active against 1 or more insects described above up to 100% mortality. This activity is indicated by a “+”)”. The CA result in [6] is reported as “+ (active against 1 or more insects described above up to 100% mortality. This activity is indicated by a “+”)”.

For `N#Cc1nn(-c2c(Cl)cc(C(F)(F)F)cc2Cl)c(CO)c1[S+]([O-])C(F)(F)F` (centres unmarked) [Compound 12, 3-Cyano-1-(2,6-dichloro-4-trifluoromethylphenyl)-5-(hydroxy)methyl-4-trifluoromethylsulfinylpyrazole], in assay [1], the BCW-Sys result is listed as “+ (active against 1 or more insects described above up to 100% mortality. This activity is indicated by a “+”)”. The GA-Sys result in assay [4] is on record as “+ (active against 1 or more insects described above up to 100% mortality. This activity is indicated by a “+”)”. Moreover, in [12], the SRKN entry is given as “+ (active against 1 or more insects described above up to 100% mortality. This activity is indicated by a “+”)”.
